Test results taken from US9732088B2, “C2-carbocyclic iminothiazine dioxides as BACE inhibitors, compositions, and their use” (Merck Sharp & Dohme Corp., priority 2014, dated 2017).

How the values were obtained:
rat Mdr1a (P-gp) = rat Mdr1a (P-gp) (Rattus norvegicus, UniProt Q6PSM0); test: P-Glycoprotein (P-gp) Efflux Susceptibility Assay; type: in vitro ADME; settings: LLC-PK1, pH 7.4; rat LLC-Mdr1a cells, B-A/A-B Papp ratio at 3 h; method 0.1 μM; read-out: P-gp efflux assay (rMDR1a BAAB)
Protocol: Assay 6: P-Glycoprotein (P-Gp) Efflux Susceptibility Assay
As P-gp is expressed at the blood-brain-barrier, among other tissues, lower P-gp efflux ratio values are associated with a better ability to cross the blood-brain-barrier to reach the site of BACE-1 expression in the central nervous system. P-gp efflux ratios are measured in cellular assays using cell lines that express P-gp from a number of species including rat, monkey, and human. The following assay was used to measure the rat P-gp efflux ratios, which are believed to be the most sensitive measure of P-gp susceptibility, for the compounds of the invention (test compounds) reported in the tables below.
The bidirectional transport of test compounds was conducted across pig kidney epithelial (LLC-PK1) cell monolayers. Native LLC-PK1 cells were obtained from The Netherlands Cancer Institute (Amsterdam, The Netherlands), and used under a license agreement. LLC-PK1 cells expressing a cDNA encoding rat Mdr1a (rat LLC-Mdr1a) were made in-house by stable transfection of LLC-PK1 cells with a rat MDR1 cDNA. LLC-PK1 and rat LLC-Mdr1a cell lines were cultured in 96-well transwell culture plates. […] Substrate solution (150 μL) was added to either the apical (A) or the basolateral (B) compartment of the culture plate, and buffer (150 μL; HBSS, 10 mM HEPES, pH 7.4) was added to the compartment opposite to that containing the compound. At t=3 h, 50 μL samples were removed from both sides of monolayers dosed with test compound and placed in 96 well plates, internal standard (50 μL 1 μM labetolol) was added to the samples. Samples were analyzed by LC/MS/MS using an Applied Biosystems SCIEX API 5000 triple quadruple mass spectrometry (Concord, ON, Canada) with a TurbolonSpray ion source in the positive ion mode. A Thermo Scientific Transcend LX-2 system (Franklin, Mass.) was coupled to the API 5000 with a flow rate of 800 μL/min to direct sample into the mass spectrometer. A Waters ACQUITY UPLC T3 (2×30 mm, 1.7 μm; Milford, Mass.) column was used for sample analysis. Mobile phase A consisted of 0.1% formic acid in water. Mobile phase B was acetonitrile with 0.1% formic acid. A gradient elution program was utilized where the solvent composition was held at 5% B for 0.25 min, changed from 5% B to 95% B at 0.25 min, and followed by holding at 95% B for 0.5 min, then, went back to 5% B at 0.75 min. The column was then re-equilibrated at the original solvent composition for 0.5 min. Mass spectrometric detection was accomplished by multiple reaction monitoring (MRM) of transitions unique to each compound. Sample concentration was obtained by extrapolation from the standard curve. Verapamil (1 μM) was used as the positive control to assess the functional activity of Pgp. The experiment was performed in triplicate.
The Papp was calculated by the following formula for samples taken at t=3 h:
[formula] where “Volume of Receptor Chamber” is 0.15 mL, “Area of membrane” is 0.11 cm^2, the “Initial Concentration” is the sum of the concentration measured in the donor compartment plus the concentration measured in the receiver compartment at t=3 h, “Δ in Concentration” is the concentration in the receiver compartment at 3 h, and “Δ in Time” is the incubation time (3×60×60=10800 s). Papp was expressed as 10^−6 cm/s.
The Papp reported in the table below is the average of the Papp for transport from A to B and Papp for transport from B to A at t=3 hr.
The B-A/A-B ratio (BAAB) was calculated by dividing the Papp from B to A by the Papp from A to B at t=3 h: […]

[1] = biological target: purified human autoBACE-2 (Homo sapiens (Human), UniProt Q9Y5Z0); test: BACE-2 Assay (BACE-HTRF assay); type: biochemical; settings: Assay 2; Ki calculated from IC50 by Cheng-Prusoff; read-out: BACE2 Ki
In short: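 Purified human autoBACE-2 (1 nM final) pre-incubated 30 min at 30° C with compounds in 20 mM sodium acetate pH 5.0, 10% glycerol, 0.1% Brij-35, 5% DMSO final; endpoint HTRF cleavage of QSY7/Eu FRET peptide, read at 620 nm (320 nm excitation). IC50 by sigmoidal regression of normalized data; Ki by Cheng-Prusoff.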

[2] = biological target: purified human Cathepsin-D (Homo sapiens (Human), UniProt P07339); test: Cathepsin-D Assay (time-resolved FRET); type: biochemical; settings: Assay 4; Ki calculated from IC50 by Cheng-Prusoff;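 note: Europium-labelled peptide substrate with QSY7 quencher, cleavage read as 620 nm fluorescence after 30 min preincubation then 30 min reaction at 30 °C, pH 5.0, inhibition lowers signal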
Protocol: Assay 4: Cathepsin-D Assay
This substrate contains an C-terminal QSY7 moiety that serves as a quencher of the N-terminal Europium fluorophore (620 nm Em). In the absence of enzyme activity, 620 nm fluorescence is low in the assay and increased linearly over 1 hour in the presence of uninhibited Cathepsin-D enzyme. Inhibition of Cathespin D cleavage of the Eu-Aspartyl Protease-QSY7 substrate by inhibitors is manifested as a suppression of 620 nm fluorescence.
Varying concentrations of inhibitors in a volume of 100 nl are preincubated with purified human Cathepsin-D (0.1 nM in 10 μl) for 30 minutes at 30° C. in reaction buffer containing 100 mM Na-Acetate pH 5.0, and 0.02% Brij-35. Reactions are initiated by addition of 10 μl of 100 nM Eu-Aspartyl Protease-QSY7 substrate (50 nM final) to give a final reaction volume of 20 μl in a 384 well Nunc HTRF plate. The reactions are incubated at 30° C. for 30 minutes. The 620 nm fluorescence is then read on a Envision Multilabel plate reader (Perkin-Elmer) using a 200 microsecond delay followed by a 400 microsecond acquisition time window. Inhibitor IC50 values are derived from non-linear regression analysis of concentration response curves.

BACE-1 = BACE-1 (Homo sapiens (Human), UniProt P56817); test: BACE-1 Cellular Assay (Aβ in HEK293-APPswe/lon cells); type: cell-based; settings: 4 hours
In short: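 HEK293 cells stably expressing human APP with Swedish and London FAD mutations, cultured at 37° C., 5% CO2. Aβ40 or Aβ42 in conditioned media measured by electrochemiluminescent ELISA (WO2 capture; G2-10 or G2-11 detection). IC50 from variable-slope sigmoidal fit of signal versus compound concentration.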

Sequence of BACE-1 (P56817 46-501): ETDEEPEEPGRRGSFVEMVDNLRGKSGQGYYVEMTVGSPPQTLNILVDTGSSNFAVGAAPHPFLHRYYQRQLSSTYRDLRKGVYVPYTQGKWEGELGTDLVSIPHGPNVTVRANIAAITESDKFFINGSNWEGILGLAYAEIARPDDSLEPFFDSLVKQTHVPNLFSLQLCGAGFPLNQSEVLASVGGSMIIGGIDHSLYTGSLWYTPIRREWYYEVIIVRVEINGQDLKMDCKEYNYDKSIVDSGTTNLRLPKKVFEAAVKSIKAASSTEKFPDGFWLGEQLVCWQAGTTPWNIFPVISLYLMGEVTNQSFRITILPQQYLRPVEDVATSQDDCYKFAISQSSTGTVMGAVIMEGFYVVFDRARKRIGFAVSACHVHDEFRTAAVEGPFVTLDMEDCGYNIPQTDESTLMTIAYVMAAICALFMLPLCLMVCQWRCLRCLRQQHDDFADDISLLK
Sequence of rat Mdr1a (P-gp) (Q6PSM0 1-1272): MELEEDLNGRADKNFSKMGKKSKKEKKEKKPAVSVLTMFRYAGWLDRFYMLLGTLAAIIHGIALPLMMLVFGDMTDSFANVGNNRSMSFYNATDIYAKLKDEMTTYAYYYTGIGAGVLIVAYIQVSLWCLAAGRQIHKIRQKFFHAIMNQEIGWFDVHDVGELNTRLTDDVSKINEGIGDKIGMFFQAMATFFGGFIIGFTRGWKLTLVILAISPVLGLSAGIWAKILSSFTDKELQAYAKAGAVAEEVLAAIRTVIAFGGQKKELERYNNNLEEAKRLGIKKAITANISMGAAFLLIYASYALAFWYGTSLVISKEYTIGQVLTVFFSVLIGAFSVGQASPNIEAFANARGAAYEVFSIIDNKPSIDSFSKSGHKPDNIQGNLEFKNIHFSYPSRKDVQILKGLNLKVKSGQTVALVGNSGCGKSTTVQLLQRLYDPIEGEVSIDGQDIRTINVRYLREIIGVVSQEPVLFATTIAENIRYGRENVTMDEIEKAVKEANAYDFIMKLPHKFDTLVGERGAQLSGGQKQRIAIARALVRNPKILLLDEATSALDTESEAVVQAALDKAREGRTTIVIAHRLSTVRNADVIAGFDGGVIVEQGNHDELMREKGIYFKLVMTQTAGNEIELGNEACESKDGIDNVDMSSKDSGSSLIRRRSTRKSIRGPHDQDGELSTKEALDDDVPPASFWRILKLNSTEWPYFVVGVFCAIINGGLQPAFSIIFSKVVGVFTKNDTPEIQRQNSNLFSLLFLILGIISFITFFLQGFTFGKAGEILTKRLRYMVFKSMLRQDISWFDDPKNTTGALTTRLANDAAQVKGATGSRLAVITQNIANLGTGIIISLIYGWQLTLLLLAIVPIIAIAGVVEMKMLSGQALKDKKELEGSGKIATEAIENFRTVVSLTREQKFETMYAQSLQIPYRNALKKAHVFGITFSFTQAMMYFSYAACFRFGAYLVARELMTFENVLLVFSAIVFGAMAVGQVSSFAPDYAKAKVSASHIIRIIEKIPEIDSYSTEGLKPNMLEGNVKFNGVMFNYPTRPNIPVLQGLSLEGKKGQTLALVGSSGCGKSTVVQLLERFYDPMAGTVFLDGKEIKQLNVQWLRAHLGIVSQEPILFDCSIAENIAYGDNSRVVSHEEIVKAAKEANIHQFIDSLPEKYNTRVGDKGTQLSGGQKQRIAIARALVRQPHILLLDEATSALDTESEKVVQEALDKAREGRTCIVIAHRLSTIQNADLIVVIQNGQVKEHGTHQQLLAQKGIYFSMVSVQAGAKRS
Sequence of purified human autoBACE-2 (Q9Y5Z0 63-466): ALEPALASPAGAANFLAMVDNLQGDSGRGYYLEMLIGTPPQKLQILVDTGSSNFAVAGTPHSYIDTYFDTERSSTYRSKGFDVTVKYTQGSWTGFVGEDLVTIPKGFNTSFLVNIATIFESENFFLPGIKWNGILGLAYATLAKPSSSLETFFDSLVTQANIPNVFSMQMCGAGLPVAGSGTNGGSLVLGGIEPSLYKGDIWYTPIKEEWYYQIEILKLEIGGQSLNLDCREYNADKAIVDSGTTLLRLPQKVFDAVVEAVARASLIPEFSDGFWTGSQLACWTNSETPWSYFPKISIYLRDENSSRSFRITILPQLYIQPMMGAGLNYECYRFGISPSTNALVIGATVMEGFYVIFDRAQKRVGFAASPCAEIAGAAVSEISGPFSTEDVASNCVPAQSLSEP
Sequence of purified human Cathepsin-D (P07339 65-412): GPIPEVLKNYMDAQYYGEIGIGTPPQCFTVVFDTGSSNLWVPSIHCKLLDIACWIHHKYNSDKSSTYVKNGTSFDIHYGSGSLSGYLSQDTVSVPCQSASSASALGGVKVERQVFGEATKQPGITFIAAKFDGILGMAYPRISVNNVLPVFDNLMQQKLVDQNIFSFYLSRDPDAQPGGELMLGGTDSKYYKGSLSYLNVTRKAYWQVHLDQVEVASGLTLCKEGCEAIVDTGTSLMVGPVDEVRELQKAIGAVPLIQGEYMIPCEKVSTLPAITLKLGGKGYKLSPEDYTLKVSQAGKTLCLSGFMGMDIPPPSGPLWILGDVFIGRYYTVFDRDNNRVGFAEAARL

Structure (SMILES)	efflux ratio at 3 h (rat Mdr1a (P-gp))	Ki [1] [nM]	Ki [2] [nM]	IC50 (BACE-1) [nM]
COc1cnc2c(Nc3ccc(F)c([C@]4(C)CS(=O)(=O)C(C)(C)C(N)=N4)c3)nccc2n1 [Ex 47 of WO2014059185, reference compound]	7.9			
C[C@@]1(c2nc(Nc3nccc4cc(C#N)cnc34)ncc2F)CS(=O)(=O)[C@@](C)(C2CC2)C(N)=N1 [Example 5, 8-({4-[(3R,6S)-6-cyclopropyl-5-imino-3,6-dimethyl-1,1-dioxidothiomorpholin-3-yl]-5-fluoropyrimidin-2-yl}amino)-1,7-naphthyridine-3-carbonitrile]	31	7.8	710	10
COc1cnc2c(Nc3cc([C@]4(C)CS(=O)(=O)[C@@](C)(C5CC5)C(N)=N4)c(F)cn3)nccc2c1 [Example 6, N-{4-[(3R,6S)-6-cyclopropyl-5-imino-3,6-dimethyl-1,1-dioxidothiomorpholin-3-yl]-5-fluoropyridin-2-yl}-3-methoxy-1,7-naphthyridin-8-amine]	1.5	0.57	> 9400	3
COc1cnc2c(Nc3ccc(F)c([C@]4(C)CS(=O)(=O)[C@@](C)(C5CC5)C(N)=N4)c3)nccc2c1 [Example 14, N-{3-[(3R,6S)-6-cyclopropyl-5-imino-3,6-dimethyl-1,1-dioxidothiomorpholin-3-yl]-4-fluorophenyl}-3-methoxy-1,7-naphthyridin-8-amine]	2.9	2.8	1650	21
C[C@@]1(c2cc(Nc3ncnc4cc(C#N)cnc34)ccc2F)CS(=O)(=O)[C@@](C)(C2CC2)C(N)=N1 [Example 16, 4-({3-[(3R,6S)-6-cyclopropyl-5-imino-3,6-dimethyl-1,1-dioxidothiomorpholin-3-yl]-4-fluorophenyl}amino)pyrido[3,2-d]pyrimidine-7-carbonitrile]	31	1.4	2450	2.6
C[C@@]1(c2cc(Nc3nccc4cc(C#N)cnc34)ccc2F)CS(=O)(=O)[C@@](C)(C2CC2)C(N)=N1 [Example 18, 8-({3-[(3R,6S)-6-cyclopropyl-5-imino-3,6-dimethyl-1,1-dioxidothiomorpholin-3-yl]-4-fluorophenyl}amino)-1,7-naphthyridine-3-carbonitrile]	11	0.64	651	4.8
COc1cnc2c(Nc3ccc(F)c([C@]4(C)CS(=O)(=O)[C@@](C)(C5CC5)C(N)=N4)c3)ncnc2n1 [Example 22, (2S,5R)-2-cyclopropyl-5-(2-fluoro-5-((7-methoxypteridin-4-yl)amino)phenyl)-3-imino-2,5-dimethylthiomorpholine 1,1-dioxide]	26	11	> 9400	15
CC1(C)C(=N)N[C@](C)(c2cc(Nc3noc4cc(F)cnc34)ccc2F)CS1(=O)=O [WO′426 Ex. 30b, reference compound]		6.1		82
